Experimental data as given in ChEMBL document CHEMBL1133030, “Synthesis and in vitro evaluation of human FP-receptor selective prostaglandin analogues” (Bioorg Med Chem Lett, 2000).

How the values were obtained:
[1] = target: T1, Prostaglandin F2-alpha receptor (Homo sapiens, UniProt P43088); experiment: Displacement of [3H]PGF-2 from human FP-receptor expressed in CHO-KI cells; assay type: cell-based
[2] = target: T2, Prostaglandin E2 receptor EP3 subtype (Homo sapiens, UniProt P43115); experiment: Displacement of [3H]PGE-2 from human Prostaglandin E receptor EP3 expressed in CHO-KI cells; assay type: cell-based
T2 sequence (P43115 whole entry): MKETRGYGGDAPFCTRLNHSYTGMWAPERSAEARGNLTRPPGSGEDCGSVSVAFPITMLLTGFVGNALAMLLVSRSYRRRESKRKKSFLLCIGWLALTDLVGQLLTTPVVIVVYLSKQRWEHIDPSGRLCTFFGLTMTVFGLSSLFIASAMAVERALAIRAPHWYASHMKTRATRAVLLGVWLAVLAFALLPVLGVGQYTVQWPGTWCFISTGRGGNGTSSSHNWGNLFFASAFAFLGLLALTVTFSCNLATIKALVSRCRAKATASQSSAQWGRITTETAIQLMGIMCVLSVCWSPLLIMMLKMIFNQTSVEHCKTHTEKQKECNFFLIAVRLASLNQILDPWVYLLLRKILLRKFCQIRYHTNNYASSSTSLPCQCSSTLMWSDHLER

Thromboxane A2 receptor [3] = target: T3, Thromboxane A2 receptor (Homo sapiens, UniProt P21731); experiment: Displacement of [3H]-U-46,619 from human TP-receptor expressed in CHO-KI cells; assay type: cell-based
T3 sequence (P21731 whole entry): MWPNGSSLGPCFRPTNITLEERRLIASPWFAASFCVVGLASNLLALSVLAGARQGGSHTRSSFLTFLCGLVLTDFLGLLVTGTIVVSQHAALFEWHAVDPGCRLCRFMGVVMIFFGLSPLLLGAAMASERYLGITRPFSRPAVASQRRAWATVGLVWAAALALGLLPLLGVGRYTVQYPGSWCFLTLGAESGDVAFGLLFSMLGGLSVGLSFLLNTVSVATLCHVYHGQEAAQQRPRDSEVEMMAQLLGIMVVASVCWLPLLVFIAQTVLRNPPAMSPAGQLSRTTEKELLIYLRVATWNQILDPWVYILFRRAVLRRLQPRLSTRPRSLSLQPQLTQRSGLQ

[4] = target: T4, Prostaglandin E2 receptor EP1 subtype (Homo sapiens, UniProt P34995); experiment: Displacement of [3H]PGE-2 from Prostaglandin E receptor EP1 expressed in CHO-KI cells; assay type: cell-based
T4 sequence (P34995 whole entry): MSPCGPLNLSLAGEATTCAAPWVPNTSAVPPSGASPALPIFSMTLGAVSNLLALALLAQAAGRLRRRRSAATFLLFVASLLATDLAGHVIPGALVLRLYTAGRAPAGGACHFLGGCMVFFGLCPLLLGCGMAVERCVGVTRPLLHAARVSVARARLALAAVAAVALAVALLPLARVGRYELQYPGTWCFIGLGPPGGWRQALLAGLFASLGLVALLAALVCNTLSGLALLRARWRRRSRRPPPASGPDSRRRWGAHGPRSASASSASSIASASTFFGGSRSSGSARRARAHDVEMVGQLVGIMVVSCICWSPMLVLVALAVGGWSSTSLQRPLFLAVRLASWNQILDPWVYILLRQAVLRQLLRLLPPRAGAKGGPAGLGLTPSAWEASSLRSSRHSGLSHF

[5] = target: T1, Prostaglandin F2-alpha receptor; experiment: Functional activity in RAT-1cells, transiently-transfected with human FP-receptor (% of control ligand, fluprostenol=50%)
Thromboxane A2 receptor [6] = target: T3, Thromboxane A2 receptor; experiment: Functional activity in RAT-1cells, transiently-transfected with human TP-receptor (% of control ligand, [3H]-U-46,619=100%)
[7] = target: T4, Prostaglandin E2 receptor EP1 subtype; experiment: Functional activity in RAT-1cells, transiently-transfected with human Prostaglandin E receptor EP1 (% of control ligand, 17-phi-PGE2<50%)
[8] = target: T1, Prostaglandin F2-alpha receptor; experiment: Displacement of [3H]PGF2-alpha from human FP-receptor expressed in CHO-KI cells; assay type: cell-based
[9] = target: T2, Prostaglandin E2 receptor EP3 subtype; experiment: Functional activity in RAT-1cells, transiently-transfected with human Prostaglandin E receptor EP3 (% of control ligand, sulprostone<50%)
[10] = target: T4, Prostaglandin E2 receptor EP1 subtype; experiment: Functional activity in RAT-1cells, transiently-transfected with human Prostaglandin E receptor EP1 (% of control ligand, 17-phi-PGE2=100%)
Thromboxane A2 receptor [11] = target: T3, Thromboxane A2 receptor; experiment: Functional activity in RAT-1cells, transiently-transfected with human TP-receptor (% of control ligand, [3H]-U-46,619=50%)
[12] = target: T1, Prostaglandin F2-alpha receptor; experiment: Functional activity in RAT-1cells, transiently-transfected with human FP-receptor (% of control ligand, fluprostenol=90%)
[13] = target: T2, Prostaglandin E2 receptor EP3 subtype; experiment: Functional activity in RAT-1cells, transiently-transfected with human Prostaglandin E receptor EP3 (% of control ligand, sulprostone=50%)
[14] = target: T4, Prostaglandin E2 receptor EP1 subtype; experiment: Functional activity in RAT-1cells, transiently-transfected with human Prostaglandin E receptor EP1 (% of control ligand, 17-phi-PGE2=80%)
Thromboxane A2 receptor [15] = target: T3, Thromboxane A2 receptor; experiment: Functional activity in RAT-1cells, transiently-transfected with human TP-receptor (% of control ligand, [3H]-U-46,619=95%)
[16] = target: T2, Prostaglandin E2 receptor EP3 subtype; experiment: Functional activity in RAT-1cells, transiently-transfected with human Prostaglandin E receptor EP3 (% of control ligand, sulprostone=130%)
[17] = target: T1, Prostaglandin F2-alpha receptor; experiment: Functional activity in RAT-1cells, transiently-transfected with human FP-receptor (% of control ligand, fluprostenol=150%)
[18] = target: T1, Prostaglandin F2-alpha receptor; experiment: Functional activity in RAT-1cells, transiently-transfected with human FP-receptor (% of control ligand, fluprostenol<20%)
[19] = target: T4, Prostaglandin E2 receptor EP1 subtype; experiment: Functional activity in RAT-1cells, transiently-transfected with human Prostaglandin E receptor EP1 (% of control ligand, 17-phi-PGE2<20%)
[20] = target: T2, Prostaglandin E2 receptor EP3 subtype; experiment: Functional activity in RAT-1cells, transiently-transfected with human Prostaglandin E receptor EP3 (% of control ligand, sulprostone<20%)
Thromboxane A2 receptor [21] = target: T3, Thromboxane A2 receptor; experiment: Functional activity in RAT-1cells, transiently-transfected with human TP-receptor (% of control ligand, [3H]-U-46,619<20%)
[22] = target: T2, Prostaglandin E2 receptor EP3 subtype; experiment: Functional activity in RAT-1cells, transiently-transfected with human Prostaglandin E receptor EP3(% of control ligand, sulprostone=75%)
[23] = target: T2, Prostaglandin E2 receptor EP3 subtype; experiment: Compound was evaluated for its ability to displace [3H]-PGE-2 from human Prostaglandin E receptor EP3 isolated from CHO-KI cells; assay type: cell-based
[24] = target: T1, Prostaglandin F2-alpha receptor; experiment: Functional activity in RAT-1cells, transiently-transfected with human FP-receptor (% of control ligand, fluprostenol=87%)
Thromboxane A2 receptor [25] = target: T3, Thromboxane A2 receptor; experiment: Functional activity in RAT-1cells, transiently-transfected with human TP-receptor (% of control ligand, [3H]-U-46,619=90%)
[26] = target: T1, Prostaglandin F2-alpha receptor; experiment: Functional activity in RAT-1cells, transiently-transfected with human FP-receptor (% of control ligand, fluprostenol=100%)
[27] = target: T4, Prostaglandin E2 receptor EP1 subtype; experiment: Compound was evaluated for its ability to displace [3H]PGE-2 from human Prostaglandin E receptor EP1 isolated from CHO-KI cells (% of control ligand, 17-phi-PGE2=80%); assay type: cell-based

T1 sequence (P43088 whole entry): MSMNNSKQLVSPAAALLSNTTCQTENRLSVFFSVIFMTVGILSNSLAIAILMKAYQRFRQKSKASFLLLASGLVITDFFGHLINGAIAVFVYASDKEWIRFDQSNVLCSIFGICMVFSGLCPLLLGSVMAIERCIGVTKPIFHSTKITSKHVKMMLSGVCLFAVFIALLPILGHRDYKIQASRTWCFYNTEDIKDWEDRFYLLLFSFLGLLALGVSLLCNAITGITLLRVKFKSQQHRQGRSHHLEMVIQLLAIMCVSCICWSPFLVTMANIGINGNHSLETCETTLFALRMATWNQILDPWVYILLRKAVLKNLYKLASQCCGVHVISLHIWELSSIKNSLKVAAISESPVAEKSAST

IC50 [1] | IC50 [2] | IC50 (Thromboxane A2 receptor [3]) | IC50 [4] | Structure (SMILES) | further results
5.89 µM |  |  |  | COc1ccccc1CC[C@H](O)CC[C@@H]1[C@@H](CCCCCCC(=O)O)[C@@H](O)C[C@H]1O | 
0.29 µM | > 10 µM | > 10 µM | > 10 µM | COc1ccc(CC[C@H](O)CC[C@@H]2[C@@H](CCCCCCC(=O)O)[C@@H](O)C[C@H]2O)cc1 | 
 |  |  |  | CCCCC[C@H](O)CC[C@@H]1[C@@H](CCCCCCC(=O)O)[C@@H](O)C[C@H]1O | EC50 [5]: 5 µM; EC50 (Thromboxane A2 receptor [6]): 30 µM; EC50 [7]: > 10 µM; IC50 [8]: 0.522 µM; EC50 [9]: > 20 µM
0.0086 µM | > 10 µM | > 10 µM | > 10 µM | O=C(O)CCCCCC[C@@H]1[C@@H](CC[C@@H](O)CCc2cccc(C(F)(F)F)c2)[C@H](O)C[C@@H]1O | EC50 [10]: 30 µM; EC50 (Thromboxane A2 receptor [11]): > 20 µM; EC50 [12]: 0.085 µM; IC50 [8]: 0.0086 µM; EC50 [9]: > 20 µM
0.076 µM | > 10 µM | > 10 µM | 3.1 µM | O=C(O)CCCCCC[C@@H]1[C@@H](CC[C@@H](O)CCc2ccccc2F)[C@H](O)C[C@@H]1O | 
 |  |  |  | CCCCC[C@H](O)/C=C/[C@@H]1[C@@H](C/C=C\CCCC(=O)O)[C@@H](O)C[C@H]1O [DINOPROST] | EC50 [13]: 2.3 µM; EC50 [14]: 0.6 µM; EC50 (Thromboxane A2 receptor [15]): 1.4 µM
0.63 µM | > 10 µM | > 10 µM | 10 µM | Cc1ccccc1CC[C@H](O)CC[C@@H]1[C@@H](CCCCCCC(=O)O)[C@@H](O)C[C@H]1O | 
 |  |  |  | CCCCC(C)(C)[C@H](O)/C=C/[C@@H]1[C@@H](C/C=C\CCCC(=O)O)[C@@H](O)C[C@H]1O | EC50 [14]: 0.3 µM; EC50 (Thromboxane A2 receptor [15]): 0.024 µM; EC50 [16]: 2 µM; EC50 [17]: 0.09 µM; IC50 [8]: 0.016 µM
4.4 µM |  |  |  | Cc1ccc(CC[C@H](O)CC[C@@H]2[C@@H](CCCCCCC(=O)O)[C@@H](O)C[C@H]2O)cc1 | 
0.54 µM | > 10 µM | > 10 µM | > 10 µM | CCc1cccc(CC[C@H](O)CC[C@@H]2[C@@H](CCCCCCC(=O)O)[C@@H](O)C[C@H]2O)c1 | 
 |  |  |  | CCCCC(C)(C)[C@H](O)CC[C@@H]1[C@@H](CCCCCCC(=O)O)[C@@H](O)C[C@H]1O | EC50 [18]: > 20 µM; EC50 [19]: > 20 µM; EC50 [20]: > 20 µM; EC50 (Thromboxane A2 receptor [21]): > 20 µM; IC50 [8]: > 1 µM
2.14 µM |  |  |  | O=C(O)CCCCCC[C@@H]1[C@@H](CC[C@@H](O)CCc2ccccc2C(F)(F)F)[C@H](O)C[C@@H]1O | 
 |  |  |  | O=C(O)CCC/C=C\C[C@@H]1[C@@H](/C=C/[C@@H](O)COc2cccc(Cl)c2)[C@H](O)C[C@@H]1O [CLOPROSTENOL] | EC50 [22]: 5 µM; EC50 [14]: 0.76 µM; EC50 (Thromboxane A2 receptor [6]): 2.4 µM
0.21 µM |  | > 10 µM | > 10 µM | N#Cc1cccc(CC[C@H](O)CC[C@@H]2[C@@H](CCCCCCC(=O)O)[C@@H](O)C[C@H]2O)c1 | IC50 [23]: > 10 µM
 |  |  |  | O=C(O)CCC/C=C\C[C@@H]1[C@@H](/C=C/[C@@H](O)CCc2cccc(C(F)(F)F)c2)[C@H](O)C[C@@H]1O | EC50 [24]: 0.064 µM; EC50 (Thromboxane A2 receptor [11]): 2.1 µM; EC50 [7]: > 20 µM; IC50 [8]: 0.01 µM; EC50 [9]: > 20 µM
3.63 µM |  |  |  | O=C(O)CCCCCC[C@@H]1[C@@H](CC[C@@H](O)CCc2ccc(C(F)(F)F)cc2)[C@H](O)C[C@@H]1O | 
0.082 µM | > 10 µM | > 10 µM | 1.1 µM | O=C(O)CCCCCC[C@@H]1[C@@H](CC[C@@H](O)CCc2ccccc2)[C@H](O)C[C@@H]1O | 
0.042 µM | 3.7 µM | > 10 µM | 10 µM | O=C(O)CCCCCC[C@@H]1[C@@H](CC[C@@H](O)CCc2cccc(F)c2)[C@H](O)C[C@@H]1O | 
0.21 µM | > 10 µM | > 10 µM | 3.45 µM | O=C(O)CCCCCC[C@@H]1[C@@H](CC[C@@H](O)CCc2ccc(F)cc2)[C@H](O)C[C@@H]1O | 
 |  |  |  | O=C(O)CCCCCC[C@@H]1[C@@H](CC[C@@H](O)COc2cccc(Cl)c2)[C@H](O)C[C@@H]1O | EC50 [10]: 19 µM; EC50 (Thromboxane A2 receptor [25]): 8 µM; EC50 [26]: 0.009 µM; IC50 [8]: 0.001 µM; EC50 [9]: > 20 µM
1.62 µM | > 10 µM | > 10 µM |  | COc1cccc(CC[C@H](O)CC[C@@H]2[C@@H](CCCCCCC(=O)O)[C@@H](O)C[C@H]2O)c1 | IC50 [27]: > 10 µM
